Assay [1] has as its system human peripheral blood mononuclear cells (PBMC). In words: IFNγ ELISPOT of human PBMC with epitope peptides. The note with it: CD105 and HIF1α peptides. The format is cell-based. The text has this: (§1) A plurality of immunological assays may be used with the methods or processes described herein to test at least one peptides of putative epitopes or nucleic acids encoding peptides of putative epitopes to determine if the peptide of the putative epitope elicits an immune response, often the sub-type of the immune response may be determined, often the immunologic assay may be an ELISPOT assay, an ELISA assay, a multiplex assay or the like. For example, a suitable immunologic assay may include performing an ELISPOT assay using cells derived from donors. The ELISPOT assay may include isolating peripheral blood mononuclear cells (PBMC) from at least 10, preferably at least 40, subjects, often the subjects are human donors. The amount of at least one cytokine production in cells following administration of the peptides of putative epitopes may be determined by the ELISPOT assay. The at least one cytokine may be IFNγ and/or IL-10 such that data indicating cytokine production may represent a positive or a negative response of cells to the peptide sequence of the putative epitope. In some cases, positive responses may have a statistically significant difference (p<0.05) between a mean number of spots from five replicates in the experimental wells and the mean number from no antigen control wells. In other cases, negative responses may not have a statistically significant difference (p<0.05) between a mean number of spots from five replicates in the experimental wells and the mean number from no antigen control wells.
(§2) This example describes the identification of unique and discrete amino acid sequences of antigenic epitopes from breast cancer stem cell and epithelial mesenchymal transformation peptides CD105 and HIF-1a, both of which are promiscuous MHC class II binders and unexpectedly stimulate high (magnitude and incidence) interferon gamma (IFNγ) and low or no interleukin (IL)-10 responses from human peripheral blood mononuclear cells (PBMC). CD105 and HIF1α have been juxtaposed to allow construction of extended epitope sequences for inclusion in either a peptide or DNA plasmid-based multi-antigen polyepitope CD4+ T-cell vaccine targeting breast cancer stem cell and epithelial mesenchymal transformation antigens in cancer patients.
(§3) […] peptides, predicted to bind promiscuously to human MHCII, were selected using web-based algorithms according to the methods described herein. Peripheral blood mononuclear cells (PBMC) from 20 female breast cancer patients were cryopreserved and evaluated by ELISPOT for antigen specific IFNγ or IL-10 secretion, according to our published methods. […] Data is reported as the mean number of spots for each experimental antigen minus the mean number of spots detected in no antigen control wells (corrected spots per well: CSPW). Positive responses were defined by a statistically significant difference (p<0.05) between the mean number of spots from five replicates in the experimental wells and the mean number from no antigen control wells for an individual (see FIG. 15).
(§4) The unpaired, two-tailed Student's t-test, Fischer's exact test or X^2 test was used to evaluate differences between groups. […] All statistical analyses were performed using GraphPad Prism 5.04 (e.g., GraphPad Software).

Assay [2] shares this test system. In words: IL-10 ELISPOT of human PBMC with epitope peptides. The note with it: CD105 and HIF1α peptides. The format is cell-based.
Source text: as §1, §2, §3, §4

The values below come from patent US20170266269A1, “METHODS OF IDENTIFYING ANTIGENS FOR VACCINES” (UNIVERSITY OF WASHINGTON THROUGH ITS CENTER FOR …, priority 2014, published 2017).

YELAHQLPLPHNVSSH [HIF1α p38-53]: in assay [1], the IFNγ response result was “strong”. For the same substance, the IL-10 response result in assay [2] was “no or low”.
For MRLTISYLRVRKLLDAGDLDIED [HIF1α p60-82], the IFNγ response result in assay [1] is “strong”. Moreover, the IL-10 response result in assay [2] was “no or low”.
“GHKEAHILRVLPGHSAGPRTVTV [CD105 p214-236]”: the IFNγ response result in assay [1] was “strong”. In assay [2], the IL-10 response result is on record as “low or no”.
Consider LHLAYNSSLVTFQEP [CD105 p116-130], for which, in assay [1], the IFNγ response result is given as “strong”. The IL-10 response result in assay [2] was “low or no”.
For VLLVLSVNSSVFLHLQALGI [CD105 p 96-114] the same measures were “strong” and “low or no”.
For “CD105 p626-642: peptide at the C-terminus of CD105 (VVAVAAPASSESSSTNH; UniProt P17813 626-642, looked up, fragment)” the same measures were “strong” and “low or no”.
